From patent US8012949B2, “Bisphosphonate compounds and methods with enhanced potency for multiple targets including FPPS, GGPPS, and DPPS” (The Board of Trustees of the University of Illinois, priority 2004, dated 2011)

Molecular target: T1, human DPPS (Homo sapiens, UniProt Q5T2R2)
T1 construct: made in house
T1 sequence (Q5T2R2 1-415): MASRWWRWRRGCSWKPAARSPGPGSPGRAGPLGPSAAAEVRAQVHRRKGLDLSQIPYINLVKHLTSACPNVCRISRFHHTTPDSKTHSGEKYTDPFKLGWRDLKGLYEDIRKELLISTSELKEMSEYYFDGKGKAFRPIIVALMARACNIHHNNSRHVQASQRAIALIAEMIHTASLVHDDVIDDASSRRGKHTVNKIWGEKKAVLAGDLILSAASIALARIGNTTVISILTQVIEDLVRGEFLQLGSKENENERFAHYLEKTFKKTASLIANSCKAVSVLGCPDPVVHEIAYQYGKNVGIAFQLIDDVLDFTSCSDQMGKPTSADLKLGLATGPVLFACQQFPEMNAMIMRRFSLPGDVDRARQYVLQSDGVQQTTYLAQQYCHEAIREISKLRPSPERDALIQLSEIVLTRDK
T1 sequence (Q86YH6 1-399 partner): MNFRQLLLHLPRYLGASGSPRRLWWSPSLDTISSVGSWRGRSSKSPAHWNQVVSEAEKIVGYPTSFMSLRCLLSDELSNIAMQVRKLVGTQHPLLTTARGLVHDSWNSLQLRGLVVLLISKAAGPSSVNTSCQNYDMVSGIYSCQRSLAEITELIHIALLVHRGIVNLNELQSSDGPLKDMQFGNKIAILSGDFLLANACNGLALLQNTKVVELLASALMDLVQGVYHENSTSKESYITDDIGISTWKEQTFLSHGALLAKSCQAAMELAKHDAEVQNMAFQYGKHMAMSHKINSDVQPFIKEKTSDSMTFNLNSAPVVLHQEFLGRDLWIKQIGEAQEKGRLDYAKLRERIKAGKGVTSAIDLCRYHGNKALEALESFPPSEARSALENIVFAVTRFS
Experiment: human DPPS enzyme inhibition
Type: biochemical
Description: To test our polypharmaceutical hypothesis, we expressed three enzymes: human FPPS, GGPPS and DPPS, and tested each for their inhibition by a series of bisphosphonates.

Question: With `CCCCCCCCCCOc1cccc(CC(O)(P(=O)(O)O)P(=O)(O)O)c1` [BPH-754] as the compound, how does the “effect on DPPS” value read?
Answer: essentially no effect

Question: What about the Ki (Table 1, experimental, read-out: DPPS_pKi (converted)) of the same compound?
Answer: 200 nM
